According to ChEMBL document CHEMBL1201862, “PubChem BioAssay data set” (2004):
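The compound was tested at five concentrations on cells cultured in 96-well plates, with a 48-hour exposure period. At the GI50, growth is halved.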 Activity calls are given as the source filed them. No stated cut-off is given here; in the data, active = GI50 up to about 1.1 µM and inactive = higher.

Key:
Test in all cases: growth of human tumour cells (NCI), 48 h
LOX IMVI = test system: LOX IMVI
NCI-H460 = test system: NCI-H460
EKVX = test system: EKVX
HT-29 = test system: HT-29
Malme-3M = test system: Malme-3M
SF-268 = test system: SF-268
KM12 = test system: KM12
SK-MEL-5 = test system: SK-MEL-5
HOP-62 = test system: HOP-62
HOP-92 = test system: HOP-92
UACC-62 = test system: UACC-62
SK-MEL-28 = test system: SK-MEL-28
CAKI-1 = test system: CAKI-1
SW-620 = test system: SW-620
RPMI-8226 = test system: RPMI-8226
SR = test system: SR
CCRF-CEM = test system: CCRF-CEM

Measured: GI50

CC1=NN(C(=O)CC(=O)Nc2cccc(Cl)c2)C(=O)C1/N=N/c1ccc(S(N)(=O)=O)cc1 (stereo unspecified)
inactive: LOX IMVI > 100 µM | NCI-H460 > 100 µM | EKVX > 100 µM | HT-29 > 100 µM | Malme-3M > 100 µM | SF-268 > 100 µM | KM12 > 100 µM | SK-MEL-5 > 100 µM | HOP-62 > 100 µM | HOP-92 > 100 µM | UACC-62 > 100 µM | SK-MEL-28 > 100 µM | CAKI-1 > 100 µM | SW-620 > 100 µM | RPMI-8226 > 100 µM | SR > 100 µM

Cc1ccc(-c2cc(=S)n(-c3ccccc3)c3[nH]c(=S)n(-c4ccccc4)c(=N)c23)cc1
inactive: CCRF-CEM > 100 µM | NCI-H460 > 100 µM | HT-29 > 100 µM | Malme-3M > 100 µM | SF-268 > 100 µM | KM12 > 100 µM | SK-MEL-5 > 100 µM | HOP-62 > 100 µM | HOP-92 > 100 µM | UACC-62 > 100 µM | SK-MEL-28 > 100 µM | CAKI-1 > 100 µM | SW-620 > 100 µM | RPMI-8226 > 100 µM | SR > 100 µM

COc1ccc2c(c1)[n+]([O-])c(-c1ccccc1Cl)c(N)[n+]2[O-]
inactive: NCI-H460 54.5 µM | EKVX > 100 µM | HT-29 62.5 µM | Malme-3M > 100 µM | SF-268 74.3 µM | KM12 67.1 µM | SK-MEL-5 39.8 µM | HOP-62 > 100 µM | HOP-92 > 100 µM | SK-MEL-28 > 100 µM | CAKI-1 > 100 µM | SW-620 61.7 µM | RPMI-8226 88.1 µM | SR > 100 µM

COc1cc(/C=C2\C(=O)N(C(=O)c3ccc(NC(C)=O)cc3)N=C2C)ccc1O
inactive: LOX IMVI > 100 µM | CCRF-CEM > 100 µM | NCI-H460 > 100 µM | EKVX > 100 µM | HT-29 > 100 µM | Malme-3M > 100 µM | SF-268 > 100 µM | KM12 > 100 µM | SK-MEL-5 > 100 µM | HOP-62 > 100 µM | SK-MEL-28 > 100 µM | CAKI-1 > 100 µM | SW-620 > 100 µM | RPMI-8226 > 100 µM | SR > 100 µM

CC(C)C(NCc1c2ccccc2nc2ccccc12)C(=O)O (stereo unspecified)
inactive: LOX IMVI 30.5 µM | CCRF-CEM 23.8 µM | NCI-H460 31.1 µM | EKVX 40.6 µM | HT-29 30.7 µM | Malme-3M 55.3 µM | SF-268 36.7 µM | KM12 33.3 µM | SK-MEL-5 64.4 µM | HOP-62 > 100 µM | HOP-92 12.4 µM | SK-MEL-28 87.5 µM | CAKI-1 28.6 µM | SW-620 39.9 µM | RPMI-8226 27.3 µM | SR 20.6 µM
